Results from US7462345B2, “Radionuclide labeling of vitamin B12 and coenzymes thereof” (Mayo Foundation for Medical Education and Research, priority 1995, dated 2008).
Where “and” joins values, the source holds several entries; their conditions need not be identical. Equal entries are not always repeated.

What was measured:
[1] = Biodistribution in mice at 24 hours, gamma well counting; type: in vivo, Balb-C mice
transplanted sarcoma = assay: Tumor imaging, mice with transplanted sarcoma, gamma well counting; type: in vivo; parameters: Fat activity, gamma well counting / Muscle activity, gamma well counting: unit not given here
Description: All images for the in vivo studies were obtained on a GE 500 maxicamera using a LEAP collimator with a 20% window about the 140 keV energy peak of technetium, and a medium energy collimator with a 20% window about the 174 keV and 247 keV energy peaks of Indium. A 256×256 matrix with a dedicated pinnacle computer system was used to collect and analyze the data.

[2] = Gastrointestinal absorption after oral administration, modified Schillings test; type: in vivo, mice; parameters: Kidney activity, gamma well counting / Liver activity, gamma well counting / Pancreas activity, gamma well counting / Heart activity, gamma well counting / Spleen activity, gamma well counting: unit not given here
Description: B. Gastrointestinal Absorption: Methylcobalamin-b-(4-aminobutyl)-DTPA and DTPA alone were labeled as described above, with the exception that the 3 mCi Indium/300 μg/100 μl normal saline solutions were not diluted. […] The mice were sacrificed at 24 hrs, dissected, and studied as described above.
A modified Schillings test was performed on two mice. Specifically, each mouse received via subcutaneous and intraperitoneal administration, a 1000 μg loading dose of non-labeled methylcobalamin-b-(4-aminobutyl)amide-DTPA analogue. At 24 hrs, the mice were fed 2-3 drops of Indium-labeled methylcobalamin-b-(4-aminobutyl)amide-DTPA-complex. Urine and feces were collected from the three groups of mice after oral administration. The mice were sacrificed at 24 hours after ingestion of tracer and images and biodistribution data were obtained at that time.

[3] = 500 μCi intraperitoneal, 24 hours, mice 1-6
[4] = 500 μCi subcutaneously, mice 7-12
[5] = 500 μCi intraperitoneal, 24 hours, tumor mice 19-24
[6] = approximately 30 μCi orally, 24 hrs, mice 13-18
[7] = approximately 30 μCi orally, 24 hrs, mice 13-18, BKG = background
[8] = approximately 100 μCi tailvein injection, tumor mice 25-30

CC1=C2N=C(C=C3N=C(C(C)=C4[N-]C(C(CC(N)=O)C4(C)CCC(=O)NCC(C)OP(=O)([O-])OC4C(CO)OC(n5cnc6cc(C)c(C)cc65)C4O)C4(C)N=C1C(CCC(=O)NCCCCNC(=O)CN(CCN(CCN(CC(=O)[O-])CC(=O)[O-])CC(=O)[O-])CC(=O)[O-])C4(C)CC(N)=O)C(CCC(N)=O)C3(C)C)C(CCC(N)=O)C2(C)CC(N)=O.[111In+3].[CH2-]C1OC(n2cnc3c(N)ncnc32)C(O)C1O.[Co+3] (stereo not shown) [adenosylcobalamin-b-(4-aminobutyl)-amide-DTPA-^111In]
Fat activity, gamma well counting [1, 3]: 101.4 and 147.3 and 102.8 | Heart activity, gamma well counting [1, 3]: 134.7 and 189.4 and 171.2 | Kidney activity, gamma well counting [1, 3]: 3717.5 and 3299.5 and 3462.7 | Liver activity, gamma well counting [1, 3]: 943.3 and 823.4 and 768.6 | Lung activity, gamma well counting [1, 3]: 130.9 and 180.1 and 113.1 | Pancreas activity, gamma well counting [1, 3]: 304.2 and 319.9 and 310.3 | Spleen activity, gamma well counting [1, 3]: 433.1 and 405.3 and 366.8 | Heart activity, gamma well counting [1, 4]: 35.0 and 29.8 and 31.3 | Kidney activity, gamma well counting [1, 4]: 621.4 and 700.5 and 601.7 | Liver activity, gamma well counting [1, 4]: 126.4 and 111.7 and 115.8 | Lung activity, gamma well counting [1, 4]: 38.4 and 51.2 and 40.6 | Pancreas activity, gamma well counting [1, 4]: 40.0 and 39.3 and 41.2 | Heart activity, gamma well counting (transplanted sarcoma; [5]): 165.0 and 134.8 and 157.8 | Kidney activity, gamma well counting (transplanted sarcoma; [5]): 3886.9 and 3115.6 and 3592.8 | Liver activity, gamma well counting (transplanted sarcoma; [5]): 691.0 and 464.8 and 675.0 | Lung activity, gamma well counting (transplanted sarcoma; [5]): 318.8 and 230.0 and 335.2 | Pancreas activity, gamma well counting (transplanted sarcoma; [5]): 445.0 and 242.7 and 439.0 | Spleen activity, gamma well counting (transplanted sarcoma; [5]): 576.3 and 309.5 and 478.3 | Tumor activity, gamma well counting (transplanted sarcoma; [5]): 954.7 and 1426.0 and 1183.1 | tumor activity relative to heart, lungs, fat, and muscle (transplanted sarcoma; IP and IV routes, 24 hours): 4-12 times | tumor activity relative to liver, spleen, and pancreas (transplanted sarcoma; IP and IV routes, 24 hours): two to four times greater activity | uptake within the transplanted sarcoma (transplanted sarcoma; at 24 hours, visually and by gamma well counting): significant amount

CC1=C2N=C(C=C3N=C(C(C)=C4[N-]C(C(CC(N)=O)C4(C)CCC(=O)NCC(C)OP(=O)([O-])OC4C(CO)OC(n5cnc6cc(C)c(C)cc65)C4O)C4(C)N=C1C(CCC(=O)NCCCCNC(=O)CN(CCN(CCN(CC(=O)[O-])CC(=O)[O-])CC(=O)[O-])CC(=O)[O-])C4(C)CC(N)=O)C(CCC(N)=O)C3(C)C)C(CCC(N)=O)C2(C)CC(N)=O.[111In+3].[CH3-].[Co+3] (stereo not shown) [methylcobalamin-b-(4-aminobutyl)-amide-DTPA-^111In]
Kidney activity, gamma well counting [2, 6]: 4.3 and 4.1 and 3.1 | Liver activity, gamma well counting [2, 6]: 0.82 and 0.80 and 0.73 | Pancreas activity, gamma well counting [2, 6]: 0.75 and 0.76 and 1.1 | Fat activity, gamma well counting [2, 7]: <BKG | Heart activity, gamma well counting [2, 7]: 0.54 and 0.50 | Muscle activity, gamma well counting [2, 7]: <BKG | activity in the urine by gamma well counting ([2]; oral, mice not flushed with non-labeled methylcobalamin-b-(4-aminobutyl)amide-DTPA): no discernable activity was detected | radioactivity in urine ([2]; oral, mice that underwent the modified Schillings test (flushed)): detectable radioactivity within their urine at one hour | Heart activity, gamma well counting (transplanted sarcoma; [8]): 21.7 and 11.4 and 16.9 | Lung activity, gamma well counting (transplanted sarcoma; [8]): 34.4 and 19.9 and 21.3 | Muscle activity, gamma well counting (transplanted sarcoma; [8]): 23.5 and 15.5 and 14.5 | Pancreas activity, gamma well counting (transplanted sarcoma; [8]): 38.4 and 21.3 and 30.3
